Assay [1] deals with T1, human H4 (Homo sapiens, UniProt Q9H3N8).
T1 construct: host or cells: CHO-K1
The experiment in a line: In vitro histamine receptor cell-based assay (aequorin bioluminescence), H4 antagonism. The conditions noted are these: CHO-K1 cells expressing human H4, aequorin and Gα16; histamine at EC80; read-out: H4 Antagonist EC50. How it is done:
(§1) The cell-based assays utilize an aequorin dependent bioluminescence signal. Doubly-transfected, stable CHO-K1 cell lines expressing human H1 or H4, mitochondrion-targeted aequorin, and (H4 only) human G protein Gα16 are obtained from Perkin-Elmer. Cells are maintained in F12 (Ham's) growth medium, containing 10% (vol./vol.) fetal bovine serum, penicillin (100 IU/mL), streptomycin (0.1 mg/mL), zeocin (0.25 mg/mL) and geneticin (0.40 mg/mL). Cell media components are from Invitrogen, Inc. One day prior to assay, the growth medium is replaced with the same, excluding zeocin and geneticin.
(§2) For assay preparation, growth medium is aspirated, and cells are rinsed with calcium-free, magnesium-free phosphate-buffered saline, followed by two to three minute incubation in Versene (Invitrogen, Inc.) at 37° C. Assay medium (DMEM:F12 [50:50], phenol-red free, containing 1 mg/mL protease-free bovine serum albumin) is added to collect the released cells, which are then centrifuged. The cell pellet is re-suspended in assay medium, centrifuged once more, and re-suspended in assay medium to a final density of 5×10^6 cells/mL. Coelenterazine-h dye (500 μM in ethanol) is added to a final concentration of 5 μM, and mixed immediately. The conical tube containing the cells is then wrapped with foil to protect the light-sensitive dye. The cells are incubated for four hours further at room temperature (approximately 21° C.) with end-over-end rotation to keep them in suspension.
Just before assay, the dye-loaded cells are diluted to 0.75×10^6 cells/mL (H1 receptor) or 1.5×10^6 cells/mL (H4 receptor) with additional assay medium. Cells are dispensed to 1536 well micro-titer plates at 3 μL/well. To assay receptor antagonism, 60 nl of 100× concentration test compounds in 100% dimethyl sulfoxide (DMSO) are dispensed to the wells, one compound per well, by passive pin transfer, and the plates are incubated for 15 minutes at room temperature. […] The pipette dispenses 3 μL/well of agonist (histamine, at twice the final concentration, where final concentration is a previously determined EC80) in assay medium, with concurrent bioluminescence detection. Agonist activity of test compounds is excluded by separate assays that measure response to test compounds immediately, without added histamine agonist.
(§3) CCD image capture on the Lumilux includes a 5 second baseline read prior to agonist addition, and generally a 40 second read per plate after agonist addition. A decrease in bioluminescence signal (measured either as area-under-the-curve, or maximum signal amplitude minus minimum signal amplitude) correlates with receptor antagonism in a dose dependent manner. The negative control is DMSO lacking any test compound. For antagonist assays, the positive controls are diphenhydramine (2-Diphenylmethoxy-N,N-dimethylethylamine, 10 μM final concentration, H1 receptor) or JNJ7777120 (1-[(5-Chloro-1H-indol-2-yl)carbonyl]-4-methyl-piperazine, 10 μM final concentration, H4 receptor). Efficacy is measured as a percentage of positive control activity.

The target in assay [2] is T2, human H1 (Homo sapiens, UniProt P35367).
T2 construct: host or cells: CHO-K1
T2 sequence (P35367 whole entry): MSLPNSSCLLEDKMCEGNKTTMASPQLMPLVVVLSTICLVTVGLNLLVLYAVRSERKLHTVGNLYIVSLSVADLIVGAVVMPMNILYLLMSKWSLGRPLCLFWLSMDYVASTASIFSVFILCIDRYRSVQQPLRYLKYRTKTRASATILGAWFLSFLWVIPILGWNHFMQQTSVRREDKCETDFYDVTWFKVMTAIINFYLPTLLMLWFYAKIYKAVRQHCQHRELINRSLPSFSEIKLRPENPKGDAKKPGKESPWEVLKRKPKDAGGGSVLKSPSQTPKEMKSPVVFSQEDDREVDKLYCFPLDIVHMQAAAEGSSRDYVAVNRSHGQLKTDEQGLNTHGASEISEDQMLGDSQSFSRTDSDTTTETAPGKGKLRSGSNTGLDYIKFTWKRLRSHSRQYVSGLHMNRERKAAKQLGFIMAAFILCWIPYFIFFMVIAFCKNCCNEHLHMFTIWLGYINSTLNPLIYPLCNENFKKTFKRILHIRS
As to the kind of experiment: In vitro histamine receptor cell-based assay (aequorin bioluminescence), H1 antagonism. The conditions noted are these: CHO-K1 cells expressing human H1 and aequorin; histamine at EC80; read-out: H1 Antagonist EC50. Here is the method:
as §1, §2
Just before assay, the dye-loaded cells are diluted to 0.75×10^6 cells/mL (H1 receptor) or 1.5×10^6 cells/mL (H4 receptor) with additional assay medium. Cells are dispensed to 1536 well micro-titer plates at 3 μL/well. To assay receptor antagonism, 60 nl of 100× concentration test compounds in 100% dimethyl sulfoxide (DMSO) are dispensed to the wells, one compound per well, by passive pin transfer, and the plates are incubated for 15 minutes at room temperature. Assay plates are then transferred to a Lumilux bioluminescence plate reader (Perkin-Elmer) equipped with an automated 1536 disposable tip pipette. The pipette dispenses 3 μL/well of agonist (histamine, at twice the final concentration, where final concentration is a previously determined EC80) in assay medium, with concurrent bioluminescence detection. Agonist activity of test compounds is excluded by separate assays that measure response to test compounds immediately, without added histamine agonist.
as §3

T1 sequence (Q9H3N8 whole entry): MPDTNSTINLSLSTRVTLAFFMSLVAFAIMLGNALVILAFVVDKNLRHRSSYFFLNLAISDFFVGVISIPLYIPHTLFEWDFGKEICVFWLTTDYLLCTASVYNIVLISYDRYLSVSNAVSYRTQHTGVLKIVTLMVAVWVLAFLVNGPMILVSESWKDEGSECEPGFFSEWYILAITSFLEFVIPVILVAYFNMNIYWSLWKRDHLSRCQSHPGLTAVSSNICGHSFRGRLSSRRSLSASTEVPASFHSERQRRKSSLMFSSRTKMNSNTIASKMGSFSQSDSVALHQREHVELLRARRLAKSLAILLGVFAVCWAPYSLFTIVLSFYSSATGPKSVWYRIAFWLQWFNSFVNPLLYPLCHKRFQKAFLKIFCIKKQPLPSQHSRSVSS

One may read the EC50 as the midpoint of the concentration-response curve. Consider `Cc1ccc2nc(N3CCNCC3)n3nc(C)nc3c2c1` [Example 100, 2,9-Dimethyl-5-(piperazin-1-yl)-[1,2,4]triazolo[1,5-c]quinazoline], for which the 50% effective concentration (EC50) in assay [1] and in assay [2] was over 10 µM in each case. Consider `CN1CCN(c2nc3c(F)cc(C(F)(F)F)cc3n3cnnc23)CC1` [Example 48, 6-Fluoro-4-(4-methylpiperazin-1-yl)-8-(trifluoromethyl)-[1,2,4]triazolo[4,3-a]quinoxaline], for which the concentration giving a half-maximal response (EC50) in assay [1] was under 10 µM; in assay [2] it was over 10 µM.

As for `CN1CCN(c2nc3ccc(Cl)cc3c3nncn23)CC1` [Example 14, 9-chloro-5-(4-methylpiperazin-1-yl)-[1,2,4]triazolo[4,3-c]quinazoline], the EC50 in assay [1] is over 10 µM; in assay [2], under 10 µM. On to `C=Cc1ccc2nc(N3CCNCC3)c3nncn3c2c1` [Example 89, 4-(piperazin-1-yl)-8-vinyl-[1,2,4]triazolo[4,3-a]quinoxaline], for which the half-maximal effective concentration (EC50) was under 10 µM in assay [1] and over 10 µM in assay [2]. For `Cc1nc2c3cc(F)c(F)cc3nc(N3CCN(C)CC3)n2n1` [Example 97, 8,9-Difluoro-2-methyl-5-(4-methylpiperazin-1-yl)-[1,2,4]triazolo[1,5-c]quinazoline], in that order: under 10 µM and over 10 µM. For `Fc1cc(Cl)cc2nc(N3CCNCC3)c3nncn3c12` [Example 192, 7-chloro-9-fluoro-4-(piperazin-1-yl)-[1,2,4]triazolo[4,3-a]quinoxaline], in that order: over 10 µM and over 10 µM.

`Clc1ccc2nc(N3CCN(C4CC4)CC3)c3nncn3c2c1` [Example 64, 8-chloro-4-(4-cyclopropylpiperazin-1-yl)-[1,2,4]triazolo[4,3-a]quinoxaline]: the EC50 in assay [1] was under 10 µM; in assay [2], over 10 µM.

In the case of `Fc1cc2nc(N3CCNCC3)c3nccn3c2cc1F` [Example 182, 7,8-difluoro-4-(piperazin-1-yl)imidazo[1,2-a]quinoxaline], the concentration giving a half-maximal response (EC50) in assay [1] and in assay [2] was under 10 µM each time.

As to `Cc1nc2c3cc(C(F)(F)F)c(Cl)cc3nc(N3CCN(C)CC3)n2n1` [Example 122, 8-chloro-2-methyl-5-(4-methylpiperazin-1-yl)-9-(trifluoromethyl)-[1,2,4]triazolo[1,5-c]quinazoline], the 50% effective concentration (EC50) in assay [1] was under 10 µM; in assay [2] it was over 10 µM. For `Clc1ccc2nc(OCC3CNC3)c3nncn3c2c1` [Example 75, 4-(azetidin-3-ylmethoxy)-8-chloro-[1,2,4]triazolo[4,3-a]quinoxaline], in that order: over 10 µM and over 10 µM. For `CN1CCN(c2nc3cc(Br)ccc3n3cnnc23)CC1` [Example 193, 7-bromo-4-(4-methylpiperazin-1-yl)-[1,2,4]triazolo[4,3-a]quinoxaline], in that order: under 10 µM and over 10 µM. For `Clc1ccc2nc(N3CCNCC3)n3ncnc3c2c1` [Example 92, 9-Chloro-5-(piperazin-1-yl)-[1,2,4]triazolo[1,5-c]quinazoline], in that order: under 10 µM and over 10 µM. `Fc1cc2nc(N3CCNCC3)c3nccn3c2cc1Cl` [Example 180, 8-chloro-7-fluoro-4-(piperazin-1-yl)imidazo[1,2-a]quinoxaline]: the concentration for a half-maximal effect (EC50) in assay [1] and in assay [2] was under 10 µM in each case.

Consider `Fc1cc2nc(N3CCNCC3)c3nncn3c2cc1F` [Example 38, 7,8-difluoro-4-(piperazin-1-yl)-[1,2,4]triazolo[4,3-a]quinoxaline], for which the results for the concentration for a half-maximal effect (EC50) in assay [1] and in assay [2] were under 10 µM and over 10 µM, respectively. Take `FC(F)(F)c1cc2nc(N3CCNCC3)c3nncn3c2cc1Cl` [Example 47, 8-Chloro-4-(piperazin-1-yl)-7-(trifluoromethyl)-[1,2,4]triazolo[4,3-a]quinoxaline]: the EC50 in assay [1] is under 10 µM; in assay [2] it was over 10 µM. For `Cc1nc2c3cc(F)c(F)cc3nc(N3CCNCC3)n2n1` [Example 98, 8,9-Difluoro-2-methyl-5-(piperazin-1-yl)-[1,2,4]triazolo[1,5-c]quinazoline], in that order: under 10 µM and over 10 µM. Regarding `CN(CCN)c1nc2ccc(Cl)cc2n2cnnc12` [Example 79, N^1-(8-chloro-[1,2,4]triazolo[4,3-a]quinoxalin-4-yl)-N-1-methylethane-1,2-diamine], the EC50 in assay [1] and in assay [2] was over 10 µM throughout. With `Cc1ccc2nc(N3CCN(C)CC3)c3nnnn3c2c1` [Example 15, 8-methyl-4-(4-methylpiperazin-1-yl)tetrazolo[1,5-a]quinoxaline], the concentration for a half-maximal effect (EC50) in assay [1] is under 10 µM; in assay [2], over 10 µM. For `CN1CCCN(c2nc3ccc(Cl)cc3n3cnnc23)CC1` [Example 68, 8-chloro-4-(4-methyl-1,4-diazepan-1-yl)-[1,2,4]triazolo[4,3-a]quinoxaline], in that order: under 10 µM and over 10 µM.

On to `CN1CCN(c2nc3c(F)c(C(F)(F)F)ccc3n3cnnc23)CC1` [Example 170, 6-fluoro-4-(4-methylpiperazin-1-yl)-7-(trifluoromethyl)-[1,2,4]triazolo[4,3-a]quinoxaline], for which the concentration giving a half-maximal response (EC50) in assay [1] was under 10 µM; in assay [2] it was over 10 µM. For `CN1CCN(c2nc3cc(C(F)(F)F)ccc3n3cnnc23)CC1` [Example 25, 4-(4-methylpiperazin-1-yl)-7-(trifluoromethyl)-[1,2,4]triazolo[4,3-a]quinoxaline], in that order: under 10 µM and over 10 µM. Turning to `CN1CCN(c2nc3cc(Cl)c(C(F)(F)F)cc3n3cnnc23)CC1` [Example 44, 7-Chloro-4-(4-methylpiperazin-1-yl)-8-(trifluoromethyl)-[1,2,4]triazolo[4,3-a]quinoxaline], the half-maximal effective concentration (EC50) in assay [1] was under 10 µM; in assay [2], over 10 µM.

Take `Cc1ccc2nc(N3CCNCC3)c3nnnn3c2c1` [Example 18, 8-Methyl-4-(piperazin-1-yl)tetrazolo[1,5-a]quinoxaline]: the concentration for a half-maximal effect (EC50) in assay [1] was under 10 µM; in assay [2] it was over 10 µM. For `CN1CCN(c2nc3c(F)cc(Cl)cc3n3cnnc23)CC1` [Example 197, 8-chloro-6-fluoro-4-(4-methylpiperazin-1-yl)-[1,2,4]triazolo[4,3-a]quinoxaline], in that order: under 10 µM and over 10 µM. For `Cc1nc2c(N3CCN(C)CC3)nc3ccc(Cl)cc3c2[nH]1` [Example 162, 8-Chloro-2-methyl-4-(4-methylpiperazinyl)imidazo[4,5-c]quinoline], in that order: over 10 µM and over 10 µM. As to `CC(C)(C)OC(=O)N1CCN(c2nc3ccc(Cl)cc3n3cnnc23)CC1` [Example 56, tert-butyl 4-(8-chloro-[1,2,4]triazolo[4,3-a]quinoxalin-4-yl)piperazine-1-carboxylate], the EC50 in assay [1] and in assay [2] was over 10 µM in each case. `CC(C)c1ccc2nc(N3CCN(C)CC3)c3nncn3c2c1` [Example 173, 8-isopropyl-4-(4-methylpiperazin-1-yl)-[1,2,4]triazolo[4,3-a]quinoxaline]: the EC50 was under 10 µM in assay [1] and over 10 µM in assay [2]. For `Clc1ccc2nc(N3CCNCC3)c3occc3c2c1` [Example 148, 8-Chloro-4-(piperazin-1-yl)furo[2,3-c]quinoline], in that order: under 10 µM and over 10 µM. With `FC(F)(F)c1ccc2nc(N3CCNCC3)c3nocc3c2c1` [Example 219, 4-piperazinyl-8-(trifluoromethyl)isoxazolo[3,4-c]quinoline], in assay [2], the concentration giving a half-maximal response (EC50) was over 10 µM.
